Data set [1] in a line: Rat microsomal intrinsic clearance. The data set is classed as in vitro ADME. As to conditions: second value of mouse/rat cell.
Data set [2] deals with BSF T. b. brucei “single marker” S427. Put plainly: Drug sensitivity assay with bloodstream-form T. brucei. The data set is classed as cell-based. The note with it: for EC50: mean values, number of replicates in parentheses; for reduction (loss, drop off) in potency against T. brucei relative to parent analogue: SAR comparison. As to the method: (§1) Drug sensitivity assays with BSF T. b. brucei “single marker” S427 and human MRC-5 fibroblasts were conducted as previously described.[43]

Data set [3] in a line: Mouse liver microsomal intrinsic clearance. The data set is classed as in vitro ADME. The protocol:
Test compounds (0.5 μM) were incubated with female CD1 mouse liver microsomes (Xenotech LLC; 0.5 mg mL^–1 50 mM potassium phosphate buffer, pH 7.4), and the reaction started with the addition of excess NADPH (8 mg mL^–1 50 mM potassium phosphate buffer, pH 7.4). Immediately, at 0 min, and then at 3, 6, 9, 15, and 30 min, an aliquot (50 μL) of the incubation mixture was removed and mixed with acetonitrile (100 μL) to stop the reaction. The internal standard was added to all samples, the samples were centrifuged to sediment the precipitated protein, and the plates were then sealed prior to UPLC–MS/MS analysis using a Quattro Premier XE (Waters Corporation, USA). XLfit (IDBS, UK) was used to calculate the exponential decay and consequently the rate constant (k) from the ratio of the peak area of the test compound to the internal standard at each time point. The rate of intrinsic clearance (CLint) of each test compound was then calculated using the following calculation [drawing 3] where V (mL mg^–1 protein) is the incubation volume mg^–1 protein added and the microsomal protein yield is taken as 52.5 mg protein g^–1 liver. Verapamil (0.5 μM) was used as a positive control to confirm acceptable assay performance.

The subject of another data set is human MRC-5 fibroblasts. Put plainly: Mammalian cell counter screen (MRC-5). The note with it: for SI: selectivity index (EC50 MRC5/EC50 T. brucei). The data set is classed as cell-based. As to the method: as §1
A general note: The purpose of a counterscreen is to sort out artefacts and off-target activity.

A short description of data set [4]: Mammalian cell counter screen (MRC-5). The data set is classed as cell-based, human. The note with it: human, MRC-5 fibroblasts; mean values; number of replicates in parentheses. As to the method:
as §1

These results are taken from PMC10350920, “Development of a 2,4-Diaminothiazole Series for the Treatment of Human African Trypanosomiasis Highlights the Importance of Static–Cidal Screening of Analogues” (Journal of Medicinal Chemistry, 2023).

As usually defined, the EC50 is the concentration at which the effect is half-maximal. Consider `COc1ccc(Nc2nc(N)c(C(=O)COC(C)C(F)(F)F)s2)cn1` (stereo not shown) [Compound 57, 1-(4-Amino-2-((6-methoxypyridin-3-yl)amino)thiazol-5-yl)-2-((1,1,1-trifluoropropan-2-yl)oxy)ethanone], for which the “CLint (rat)” value in data set [1] turned out to be 2.4 mL·min/g. In addition, the results for the EC50 in data set [2] (Trypanosoma brucei) and in data set [4] were 70 nM and more than 50000 nM, respectively. For the same molecule, the “CLint (mouse)” value in data set [3] amounted to 9.0 mL·min/g. The molecule also registered an SI in the data set with human MRC-5 fibroblasts of 714.

For `Nc1nc(Nc2ccc(F)c(F)c2)sc1C(=O)CCN1CCOCC1` [Compound 64, 1-(4-Amino-2-((3,4-difluorophenyl)amino)thiazol-5-yl)-3-morpholinopropan-1-one], the “CLint (rat)” value in data set [1] was found to be 8.3 mL·min/g. Besides, in data set [2], the “reduction (loss, drop off) in potency against T. brucei relative to parent analogue” value is more than 110 fold. Moreover, the values for the concentration giving a half-maximal response (EC50) in data set [2] (Trypanosoma brucei) and in data set [4] were 5000 nM and 29000 nM, respectively. Further, the “CLint (mouse)” value in data set [3] worked out at 1.2 mL·min/g. The SI in the data set with human MRC-5 fibroblasts worked out at 6.

For `Nc1nc(Nc2ccc(F)c(F)c2)sc1C(=O)COC1CCC1` [Compound 46, 1-(4-Amino-2-((3,4-difluorophenyl)amino)thiazol-5-yl)-2-cyclobutoxyethanone], the “CLint (rat)” value in data set [1] came to 8.2 mL·min/g. Besides, the EC50 was 20 nM in data set [2] (Trypanosoma brucei) and more than 50000 nM in data set [4]. Also, the “CLint (mouse)” value in data set [3] came out at 9 mL·min/g. In addition, in the data set with human MRC-5 fibroblasts, the SI turned out to be 2500.

On to `CC1CCCN1CC(=O)c1sc(Nc2ccc(F)c(F)c2)nc1N` (stereo not shown) [Compound 59, 1-(4-Amino-2-((3,4-difluorophenyl)amino)thiazol-5-yl)-2-(2-methylpyrrolidin-1-yl)ethanone], for which the “CLint (rat)” value in data set [1] is 3.1 mL·min/g. In addition, the EC50 in data set [2] (Trypanosoma brucei) is 50 nM; in data set [4], more than 50000 nM. Moreover, the “CLint (mouse)” value in data set [3] was found to be 5.2 mL·min/g. This molecule also had an SI in the data set with human MRC-5 fibroblasts of 1000.

Take `Nc1nc(Nc2ccc(F)c(F)c2)sc1C(=O)COC1CC(F)(F)C1(F)F` (stereo not shown) [Compound 47, 1-(4-Amino-2-((3,4-difluorophenyl)amino)thiazol-5-yl)-2-(2,2,3,3-tetrafluorocyclobutoxy)ethanone]: in data set [1], the “CLint (rat)” value came out at 4.4 mL·min/g. The results for the EC50 in data set [2] (Trypanosoma brucei) and in data set [4] were 10 nM and 29000 nM, respectively. Moreover, the “CLint (mouse)” value in data set [3] was found to be 5.2 mL·min/g. For the same molecule, in the data set with human MRC-5 fibroblasts, the SI was found to be 2900.

For “1-(4-Amino-2-((3,4-difluorophenyl)amino)thiazol-5-yl)-2-((2S,6R)-2,6-dimethylmorpholino)ethanone [Compound 63]”, the “CLint (rat)” value in data set [1] is 4.9 mL·min/g. Further, the EC50 in data set [2] is 50 nM; with human MRC-5 fibroblasts (mean values, number of replicates in parentheses, read-out: MRC-5 EC50), more than 50000 nM. Besides, the “CLint (mouse)” value in data set [3] is 8.1 mL·min/g. Besides, the SI in the data set with human MRC-5 fibroblasts is 1000.

On to `CC(OCC(=O)c1sc(Nc2ccc(C(F)(F)F)cc2)nc1N)C(F)(F)F` (stereo not shown) [Compound 52, 1-(4-Amino-((4-(trifluoromethyl)phenyl)amino)thiazol-5-yl)-2-((1,1,1-trifluoropropan-2-yl)oxy)ethanone], for which, in data set [1], the “CLint (rat)” value came to 0.5 mL·min/g. In addition, the “reduction (loss, drop off) in potency against T. brucei relative to parent analogue” value in data set [2] stood at 10 fold. Besides, the values for the EC50 in data set [2] (Trypanosoma brucei) and in data set [4] were 70 nM and 38000 nM, respectively. The “CLint (mouse)” value in data set [3] was 2.3 mL·min/g. For the same molecule, in the data set with human MRC-5 fibroblasts, the SI worked out at 543.

Regarding `CC(OCC(=O)c1sc(Nc2ccc3c(c2)OC(F)(F)O3)nc1N)C(F)(F)F` (stereo not shown) [Compound 53, 1-(4-Amino-2-((2,2-difluorobenzo[d][1,3]dioxol-5-yl)amino)thiazol-5-yl)-2-((1,1,1-trifluoropropan-2-yl)oxy)ethan-1-one], the “CLint (rat)” value in data set [1] was 1.2 mL·min/g. Moreover, the 50% effective concentration (EC50) in data set [2] (Trypanosoma brucei) is 30 nM; in data set [4] it was more than 50000 nM. Further, the “CLint (mouse)” value in data set [3] turned out to be 5 mL·min/g. Further, the SI in the data set with human MRC-5 fibroblasts is given as 1667.

For the molecule `Nc1nc(Nc2ccc(F)c(F)c2)sc1C(=O)CN1CCOCC1` [Compound 62, 1-(4-Amino-2-((3,4-difluorophenyl)amino)thiazol-5-yl)-2-morpholinoethanone], the “CLint (rat)” value in data set [1] was found to be 9 mL·min/g. Further, the concentration giving a half-maximal response (EC50) was 40 nM in data set [2] (Trypanosoma brucei) and more than 50000 nM in data set [4]. Also, in data set [3], the “CLint (mouse)” value is 4.7 mL·min/g.
